Results published in patent US8877938B2, “Compounds containing S-N-valeryl-N-{[2′-(1H-tetrazole-5-yl)-biphenyl-4-yl]-methyl}-valine and (2R,4S)-5-biphenyl-4-yl-4-(3-carboxy-propionylamino)-2-methyl-pentanoic acid ethyl ester moieties and cations” (Novartis Pharmaceuticals Corporation, priority 2005, dated 2014).
Where two headings read alike, the source gives them in different places.

Columns and labels:
[1] = test system: double-transgenic rats (dTGRs) that overexpress both human renin and its substrate, human angiotensinogen
Experimental: (§1) Representative studies are carried out with trisodium [3-((1S,3R)-1-biphenyl-4-ylmethyl-3-ethoxycarbonyl-1-butylcarbamoyl)propionate-(S)-3′-methyl-2′- pentanoyl{2″-(tetrazol-5-ylate)biphenyl-4′-ylmethyl}amino)butyrate] hemipentahydrate, e.g. applying the following methodology: • The antihypertensive and neutral endopeptidase 24.11 (NEP)-inhibitory activities of trisodium [3-((1S,3R)-1-biphenyl-4-ylmethyl-3-ethoxycarbonyl-1-butylcarbamoyl)propionate-(S)-3′-methyl-2′-(pentanoyl{2″-tetrazol-5-ylate)biphenyl-4′-ylmethyl}amino)butyrate] hemipentahydrate is assessed in conscious rats. The blood pressure-lowering effect is evaluated in double-transgenic rats (dTGRs) that overexpress both human renin and its substrate, human angiotensinogen (Bohlender, et al, High human renin hypertension in transgenic rats. Hypertension; 29(1 Pt 2):428-34, 1997). […] The NEP-inhibitory effect of trisodium [3-((1 S,3R)-1-biphenyl-4-ylmethyl-3-ethoxycarbonyl-1-butylcarbamoyl)propionate-(S)-3′-methyl-2′-(pentanoyl{2″-(tetrazol-5-ylate)biphenyl-4′-ylmethyl}amino)butyrate] hemipentahydrate is determined in conscious Sprague-Dawley rats infused with exogenous atrial natriuretic peptide (ANP). Potentiation of plasma ANP levels is used as an index of NEP inhibition in vivo. In both models, trisodium [3-((1S,3R)-1-biphenyl-4-ylmethyl-3-ethoxycarbonyl-1-butylcarbamoyl)propionate-(S)-3′-methyl-2′-(pentanoyl{2″-(tetrazol-5-ylate)biphenyl-4′-ylmethyl}amino)butyrate] hemipentahydrate is administered orally as a powder in gelatin mini capsules. […] Antihypertensive Effect In Vivo
The dTGRs are instrumented with radiotelemetry transmitters for continuous measurement of arterial blood pressure and heart rate. Animals are randomly assigned to vehicle (empty capsule) or treatment (at 2, 6, 20 or 60 mg/kg, p.o.) groups.

[2] = biological target: neutral endopeptidase 24.11 (NEP) (Rattus norvegicus, UniProt P07861); conditions: for NEP inhibition in vivo, as reflected by potentiation of plasma ANPir: oral administration, conscious Sprague-Dawley rats infused with exogenous ANP
neutral endopeptidase 24.11 (NEP), sequence (P07861 whole entry, the tested form may be a part): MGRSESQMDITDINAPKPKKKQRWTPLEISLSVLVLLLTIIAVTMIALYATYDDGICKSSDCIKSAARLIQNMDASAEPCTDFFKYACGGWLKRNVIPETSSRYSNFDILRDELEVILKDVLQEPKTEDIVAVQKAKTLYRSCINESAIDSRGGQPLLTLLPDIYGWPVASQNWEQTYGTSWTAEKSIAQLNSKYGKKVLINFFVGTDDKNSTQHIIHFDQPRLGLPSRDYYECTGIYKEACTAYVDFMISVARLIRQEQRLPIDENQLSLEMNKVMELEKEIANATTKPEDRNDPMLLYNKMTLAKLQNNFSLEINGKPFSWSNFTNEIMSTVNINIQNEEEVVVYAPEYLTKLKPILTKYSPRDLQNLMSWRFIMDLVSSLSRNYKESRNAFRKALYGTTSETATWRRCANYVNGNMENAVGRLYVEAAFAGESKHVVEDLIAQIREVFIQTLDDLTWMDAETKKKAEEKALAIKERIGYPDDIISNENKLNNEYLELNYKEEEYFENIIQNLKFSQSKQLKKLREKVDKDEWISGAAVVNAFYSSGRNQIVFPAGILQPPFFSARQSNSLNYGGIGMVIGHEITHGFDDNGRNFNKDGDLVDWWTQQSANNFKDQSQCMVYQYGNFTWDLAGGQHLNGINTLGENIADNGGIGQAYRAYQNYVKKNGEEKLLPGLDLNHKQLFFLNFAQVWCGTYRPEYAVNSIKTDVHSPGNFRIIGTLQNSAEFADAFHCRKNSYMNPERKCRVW
Experimental: as §1
Rat ANP(1-28) is infused intravenously at a rate of 450 ng/kg/min in conscious, chronically cannulated, male Sprague-Dawley rats. After one hour of infusion, rats are randomly assigned to one of six groups: untreated control, vehicle (empty capsule) control, or one of four doses of drug (2, 6, 20, or 60 mg/kg, p.o.). ANP infusion is continued for an additional eight hours. Blood samples are collected for measuring plasma ANPir by a commercial enzyme immunoassay kit at −60 min (i.e., before initiating ANP infusion), −30 min (after 30 min of ANP infusion), 0 min (“baseline”; after 60 min of ANP infusion but before dosing with drug or its vehicle), and at 0.25, 0.5,1, 2, 3, 4, 5, 6, 7, and 8 hr post-dosing.

[3] = 2, 6, 20 or 60 mg/kg, p.o., rat ANP(1-28) infused i.v. at 450 ng/kg/min

trisodium [3-((1S,3R)-1-biphenyl-4-ylmethyl-3-ethoxycarbonyl-1-butylcarbamoyl)propionate-(S)-3′-methyl-2′-(pentanoyl{2″-(tetrazol-5-ylate)biphenyl-4′-ylmethyl}amino)butyrate] hemipentahydrate
mean arterial pressure (MAP) ([1]; 2, 6, 20 or 60 mg/kg, p.o., baseline 24-hr MAP approximately 170-180 mmHg): dose-dependently reduces MAP
antihypertensive effect ([1]; oral administration, conscious dTGRs, a rat model of fulminant hypertension): dose-dependent and long-lasting antihypertensive effect
MAP, difference from vehicle controls ([1]; three highest doses (of 2, 6, 20, 60 mg/kg, p.o.)): significantly different from the vehicle controls
plasma ANPir [2, 3]: dose-dependently augments ANPir
time to augmentation of plasma ANPir after dosing [2, 3]: ≤ 15 min
NEP inhibition in vivo, as reflected by potentiation of plasma ANPir [2]: rapidly and dose-dependently inhibits NEP with a long duration of action
NEP inhibition in vivo, as reflected by potentiation of plasma ANPir ([2]; listed as LCZ696): rapidly and dose-dependently inhibited NEP with a long duration of action
